{"source": "patent US20100150884A1", "about": "“Anticancer Agent to Be Combined with Telomelysin” (priority 2005, published 2010)", "key": {"[1]": {"tested_on": "various cancer cells cultured in vitro", "test": "XTT assay, combined effect of Telomelysin and anticancer agent, cell strains not named individually", "format": "cell-based, human", "procedure": "(§1) Telomelysin was infected to the following various cancer cells cultured in vitro at the concentrations of 0 (Mock), 0.1 or 1 MOI (multiplicity of infection). The cells used were as follows.\n(§2) Specifically, 1×10^3 cells from each of the above cell strains were plated in a 96-well plate. After 24 hours, cells were counted and the virus was added to the culture broth at a concentration of 0.1 MOI or 1 MOI.\n(§3) On the next day, docetaxel was added to the virus-infected cell culture broth at various concentrations (control, 0.1 nM, 1.0 nM, 10.0 nM and 100.0 nM).\n(§4) On day 5 of infection, XTT assay was performed using a kit (Roche Diagnostics). Briefly, the culture broth was removed from the plate. A reaction solution containing XTT reagent was prepared and added to the plate. Cells were cultured for about 4 hours. Then, absorbance was measured with a microtiter plate (ELISA) reader, and the number of viable cells was calculated to thereby confirm antitumor effect.\nXTT assays were performed in the same manner as described above using microtubule inhibitor vinorelbine and topoisomerase I inhibitor SN-38 (CPT-11 metabolite) as anticancer agents combined with Telomelysin."}, "[2]": {"tested_on": "H1299 cells", "test": "XTT assay, combined effect of Telomelysin and anticancer agent", "format": "cell-based, human", "settings": "low concentrations of docetaxel combined with Telomelysin 0.1 MOI; day 5 of infection", "procedure": "as §1, §2, §3, §4"}, "[3]": {"tested_on": "H226Br cells", "test": "XTT assay, combined effect of Telomelysin and anticancer agent", "format": "cell-based, human", "procedure": "as §1, §2, §3, §4"}, "[4]": {"tested_on": "HepG2 cells", "test": "XTT assay, combined effect of Telomelysin and anticancer agent", "format": "cell-based, human", "settings": "docetaxel combined with Telomelysin; day 5 of infection", "procedure": "as §1, §2, §3, §4"}, "[5]": {"tested_on": "LNCaP cells", "test": "XTT assay, combined effect of Telomelysin and anticancer agent", "format": "cell-based, human", "settings": "docetaxel combined with Telomelysin; day 5 of infection", "procedure": "as §1, §2, §3, §4"}, "[6]": {"tested_on": "T.Tn cells", "test": "XTT assay, combined effect of Telomelysin and anticancer agent", "format": "cell-based, human", "procedure": "as §1, §2, §3, §4"}, "[7]": {"tested_on": "human lung cancer cell H1299 and human large bowel cancer cell SW620", "test": "Quantitative real-time PCR of E1A gene, proliferation/replication of Telomelysin", "format": "cell-based", "settings": "Telomelysin 0.1 MOI in combination with docetaxel versus alone", "procedure": "How the proliferation of Telomelysin would be affected when an anticancer agent acting on microtubule is combined with Telomelysin was analyzed by quantitative real-time PCR.\nHuman lung cancer cell H1299 and human large bowel cancer cell SW620 were infected with Telomelysin at 0.1 MOI for 2 hours. Two hours thereafter, docetaxel was administered. At 12, 24, 36, 48 and 60 hours after the infection, cells were harvested. DNA contained in the cells and in the supernatant was extracted separately. Real-time PCR was performed using primers targeting the E1A gene carried by Telomelysin, to thereby analyze viral proliferation/replication quantitatively. Specifically, 2 μl of DNA extract was added to 18 μl of PCR solution. PCR was performed using E1A primers under the following conditions.\nComposition of the PCR solution: • 1×LC FastStart DNA Master SYBR Green I • 3 mM MgCl2 • 0.5 μM each primer Reaction conditions: • 95° C., 10 min • (95° C., 10 sec; 60° C., 15 sec; 72° C., 8 sec)×40 cycles • 70° C., 15 sec • 40° C., 30 sec"}, "[8]": {"tested_on": "tumor cells", "test": "Cell cycle analysis with PI (propidium iodide) using flow cytometry", "format": "cell-based", "settings": "for sub G0/G1: after G2/M arrest; for cell cycle arrest: began 12 hours after administration", "source_text": "The influence of the substance having an antitumor effect and the recombinant virus used in combination in the pharmaceutical composition of the present invention upon the cell cycle of target cells may be examined, for example, by analyzing cell cycle with a nuclear dye PI (propidium iodide) using flow cytometry.\nAs a result of cell death, cell membranes become unable to retain their states and nuclei are readily stained with a nuclear dye such as PI mentioned above. Therefore, DNA content and cell cycle can be judged from the results of nuclear staining with PI. Here, it should be note that when ratios of S phase and G2/M phase in cell cycle are high in tumor cells, the malignancy is judged to be high.\nCell cycle was analyzed with PI (propidium iodide) using flow cytometry."}, "[9]": {"tested_on": "H1299 lung cancer cell tumor", "test": "In vivo antitumor effect, H1299 subcutaneous tumor, tumor size", "set-up": "species or system nude mice", "settings": "combination: Telomelysin intratumoral 1×10^7 pfu and docetaxel 12.5 mg/kg intraperitoneal, three times", "procedure": "H1299 was inoculated subcutaneously at the back of 5-week old nude mice. One, three and five days after the tumor reached 5-10 mm in size, Telomelysin was administered intratumorally at a dose of 1×10^7 pfu/50 μl/mouse and docetaxel was administered at a dose of 12.5 mg/kg intraperitoneally both three times in the total. As a control, PBS was administered intratumorally and intraperitoneally. Tumor size was measured in every three days."}, "[10]": {"tested_on": "H1299 tumor tissue", "test": "HE staining of tumor tissue after intratumoral administration", "format": "in vivo, nude mice", "settings": "Telomelysin in combination with docetaxel; six days after the final administration", "procedure": "(§5) H1299 was inoculated subcutaneously at the back of 5-week old nude mice. When the tumor reached 5-10 mm in size, Telomelysin was administered intratumorally. Six days after the final administration, tumor tissue and liver were stained with HE as described below. Briefly, tissue sections were prepared, deparaffinized and washed with water. Then, distilled water was fed to the tissue section. Hematoxylin solution was added thereto and left stationary for 20 minutes. Then, the section was rinsed with water lightly. The resultant section was fractionated with 1% hydrochloric acid/70% alcohol, followed by color development. Then, the tissue section was washed with water for 10 minutes, passed through 80% ethanol, and dipped in eosin solution for 10 minutes. Subsequently, the tissue section was washed with water lightly, dehydrated, cleared and mounted to thereby perform HE staining."}, "[11]": {"tested_on": "liver", "test": "HE staining of liver after intratumoral administration", "format": "in vivo, nude mice", "settings": "Telomelysin in combination with docetaxel; six days after the final administration", "procedure": "as §5"}, "[12]": {"settings": "docetaxel combined with Telomelysin, day 5 of infection"}, "[13]": {"settings": "Telomelysin and docetaxel in combination"}}, "data": [{"smiles": "CCc1c2c(nc3ccc(O)cc13)-c1cc3c(c(=O)n1C2)COC(=O)[C@]3(O)CC", "note": "[SN-38]", "values": [{"measurement": "combined effect (antitumor effect, viable cells)", "setting": "[1]; SN-38 combined with Telomelysin, when the concentration of SN-38 was low", "value": "combined effect was observed"}, {"measurement": "sensitivity of cell strains to SN-38", "setting": "[1]; any of the cell strains tested", "value": "has sensitivity"}]}, {"smiles": "CC(=O)O[C@@]12CO[C@@H]1C[C@H](O)[C@@]1(C)C(=O)[C@H](O)C3=C(C)[C@@H](OC(=O)[C@H](O)[C@@H](NC(=O)OC(C)(C)C)c4ccccc4)C[C@@](O)([C@@H](OC(=O)c4ccccc4)[C@H]21)C3(C)C", "note": "[docetaxel]", "values": [{"measurement": "combined effect (antitumor effect, viable cells)", "setting": "[2]", "value": "especially remarkable"}, {"measurement": "combined effect (antitumor effect, viable cells)", "setting": "[3]; [12]", "value": "evident combined effect was not observed"}, {"measurement": "sensitivity of cell strain to docetaxel", "setting": "[3]; docetaxel itself", "value": "sensitivity to docetaxel itself"}, {"measurement": "combined effect (antitumor effect, viable cells)", "setting": "[4]", "value": "evident combined effect was not observed"}, {"measurement": "combined effect (antitumor effect, viable cells)", "setting": "[5]", "value": "evident combined effect was not observed"}, {"measurement": "combined effect (antitumor effect, viable cells)", "setting": "[6]; [12]", "value": "evident combined effect was not observed"}, {"measurement": "sensitivity of cell strain to docetaxel", "setting": "[6]; docetaxel itself", "value": "sensitivity to docetaxel itself"}, {"measurement": "proliferation efficiency of Telomelysin diffused in supernatant (E1A DNA)", "setting": "[7]", "value": "equal proliferation efficiency"}, {"measurement": "apoptosis observed", "setting": "[8]; [13]", "value": "apoptosis (DNA fragmentation)"}, {"measurement": "sub G0/G1", "setting": "[8]; [13]", "value": "increased gradually"}, {"measurement": "cell cycle arrest", "setting": "[8]; [13]", "value": "G2/M arrest"}, {"measurement": "apoptosis observed", "setting": "[8]; docetaxel administered alone", "value": "apoptosis (DNA fragmentation)"}, {"measurement": "sub G0/G1", "setting": "[8]; docetaxel administered alone", "value": "increased gradually"}, {"measurement": "cell cycle arrest", "setting": "[8]; docetaxel administered alone", "value": "G2/M arrest"}, {"measurement": "antitumor effect (tumor size) compared to the control group and single use groups", "setting": "[9]", "value": "still more significant antitumor effect"}, {"measurement": "hyaline degeneration of tumor cells", "setting": "[10]", "value": "observed in a wide range"}, {"measurement": "toxicity in liver tissue", "setting": "[11]", "value": "Toxicity was not observed"}]}, {"smiles": "CCC1=C[C@@H]2CN(C1)Cc1c([nH]c3ccccc13)[C@@](C(=O)OC)(c1cc3c(cc1OC)N(C)[C@H]1[C@@](O)(C(=O)OC)[C@H](OC(C)=O)[C@]4(CC)C=CCN5CC[C@]31[C@@H]54)C2", "note": "[vinorelbine]", "values": [{"measurement": "combined effect (antitumor effect, viable cells)", "setting": "[1]; vinorelbine combined with Telomelysin", "value": "combined effect almost equal to that shown by docetaxel"}]}]}
